Test results taken from BigSolDB 2.1.

O=C1NC23NC(=O)NC2(N1)C(=O)NC3=O (stereo not given)
solubility (mole fraction)
Settings	273.15 K	278.15 K	283.15 K	288.15 K	293.15 K	298.15 K	303.15 K	308.15 K	313.15 K	318.15 K
in 1,4-dioxane	0.000149	0.000174	0.000214	0.000267	0.000333	0.000453	0.000601	0.000696	0.000856	0.00102
in THF	0.000553	0.000655	0.000783	0.000992	0.00121	0.00151	0.00192	0.00224	0.00274	0.00325
in acetone	5.58e-05	6.73e-05	7.84e-05	9.4e-05	0.000114	0.000131	0.000158	0.00018	0.000202	0.000246
in acetonitrile	9e-06	1.15e-05	1.43e-05	1.72e-05	2.16e-05	2.75e-05	3.6e-05	4.4e-05	5.5e-05	6.79e-05
in ethanol	6.15e-05	7.48e-05	9.23e-05	0.000113	0.000136	0.00017	0.000214	0.000264	0.000322	0.000419
in ethyl acetate	2.59e-05	3.38e-05	4.59e-05	6.9e-05	9.2e-05	0.000124	0.000167	0.000225	0.000322	0.000413
in ethylene glycol	0.00029	0.000326	0.00036	0.000404	0.000459	0.000516	0.000587	0.000638	0.00073	0.000822
in isopropanol	0.000113	0.000133	0.000162	0.000192	0.000234	0.000284	0.000364	0.000482	0.000526	0.000614
in methanol	0.00161	0.00184	0.00243	0.00286	0.00348	0.00409	0.0049	0.00592	0.00727	0.00843
in n-propanol	2.56e-05	3.13e-05	3.83e-05	4.65e-05	6.12e-05	8.12e-05	0.000103	0.000122	0.000151	0.00019
in toluene	3.2e-06	4.3e-06	5.4e-06	6.1e-06	8.4e-06	1.05e-05	1.28e-05	1.5e-05	1.95e-05	2.6e-05
in water	5.92e-05	7.18e-05	9.34e-05	0.000126	0.000159	0.000188	0.000223	0.00025	0.000313	0.000369
